Reference: the supplement of paper PMC10307832

How the values were obtained:
Assay in all cases: relative viability (nuclei count vs DMSO), 5 days (fraction); higher = more cells survive
[1] = compound: O=C(NC1CCNCC1)c1n[nH]cc1NC(=O)c1c(Cl)cccc1Cl [AT-7519] + O=C(c1cc(Cc2n[nH]c(=O)c3ccccc23)ccc1F)N1CCN(C(=O)C2CC2)CC1 [Olaparib] (partner 8 µM)
How it was run: (§1)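 Medians of duplicate plates are given as relative viability. That measure is the nuclei count in treated wells divided by the count in vehicle wells. Counts were taken on 4× images of lung cancer cell lines in 1536-well plates, 5 days after pin-tool dosing the day after seeding with one drug alone or a fixed anchor-drug dose plus five library-drug doses (not always all listed) in √10 steps.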

[2] = compound: C1=CC2=C(C=C(C(=C2N=C1)O)N=NC3=CC4=C(C=C3)C=C(C=C4)S(=O)(=O)O)S(=O)(=O)O + CS(=O)(=O)CCNCc1ccc(-c2ccc3ncnc(Nc4ccc(OCc5cccc(F)c5)c(Cl)c4)c3c2)o1 [Lapatinib] (partner 2 µM)
How it was run: as §1

[3] = compound: O=C(NC1CCNCC1)c1n[nH]cc1NC(=O)c1c(Cl)cccc1Cl [AT-7519] + Cc1cc(Nc2cc(N3CCN(C)CC3)nc(Sc3ccc(NC(=O)C4CC4)cc3)n2)n[nH]1 [Tozasertib] (partner 0.1 µM)
How it was run: as §1

[4] = compound: O=C(NC1CCNCC1)c1n[nH]cc1NC(=O)c1c(Cl)cccc1Cl [AT-7519] + Cc1nc(NC(=O)N2CCC[C@H]2C(N)=O)sc1-c1ccnc(C(C)(C)C(F)(F)F)c1 [Alpelisib] (partner 2 µM)
How it was run: as §1

| Cell Line | relative viability ([1]; first compound 0.01 µM) | relative viability ([1]; first compound 0.03162 µM) | relative viability ([1]; first compound 0.3162 µM) | relative viability ([1]; first compound 1 µM) | relative viability ([2]; first compound 0.08 µM) | relative viability ([2]; first compound 0.253 µM) | relative viability ([2]; first compound 0.8 µM) | relative viability ([2]; first compound 2.53 µM) | relative viability ([2]; first compound 8 µM) | relative viability ([3]; first compound 0.01 µM) | relative viability ([3]; first compound 0.03162 µM) | relative viability ([3]; first compound 0.3162 µM) | relative viability ([3]; first compound 1 µM) | relative viability ([4]; first compound 0.01 µM) | relative viability ([4]; first compound 0.03162 µM) | relative viability ([4]; first compound 0.3162 µM) | relative viability ([4]; first compound 1 µM) |
| --- | --- | --- | --- | --- | --- | --- | --- | --- | --- | --- | --- | --- | --- | --- | --- | --- | --- |
| 201T | 0.895 | 0.846 | 0.917 | 0.666 | 0.975 | 1.04 | 1.01 | 0.997 | 1.02 | 1.01 | 1.01 | 0.946 | 0.977 | 0.972 | 1.05 | 1.02 | 1.09 |
| A549 | 0.312 | 0.309 | 0.315 | 0.368 | 1.08 | 0.991 | 0.972 | 0.947 | 1.01 |  |  |  |  | 0.882 | 0.708 | 0.69 | 0.322 |
| A-427 | 0.806 | 0.745 | 0.713 | 0.382 | 1.16 | 0.825 | 0.974 | 1.05 | 1.1 | 0.26 | 0.211 | 0.207 | 0.14 | 1.11 | 1.06 | 1.01 | 0.453 |
| ABC-1 | 1.02 | 0.646 | 0.608 | 0.454 | 1.25 | 0.989 | 1.08 | 1.18 | 1.02 | 0.199 | 0.155 | 0.189 | 0.195 | 0.962 | 1.01 | 0.724 | 0.416 |
| BEN | 1.03 | 1.1 | 1.03 | 0.809 | 0.956 | 0.623 | 0.669 | 0.766 | 0.654 | 0.391 | 0.459 | 0.501 | 0.597 | 1.03 | 0.954 | 1.12 | 0.76 |
| CAL-12T | 0.736 | 0.736 | 0.539 | 0.163 | 0.593 | 0.58 | 0.629 | 0.63 | 0.663 | 0.298 | 0.33 | 0.213 | 0.122 | 1.27 | 1.02 | 0.534 | 0.13 |
| COR-L23 | 0.362 | 0.361 | 0.264 | 0.102 | 1.3 | 0.971 | 0.92 | 1 | 1.15 | 0.177 | 0.189 | 0.148 | 0.144 | 0.987 | 0.746 | 0.348 | 0.119 |
| COR-L 105 | 0.71 | 0.714 | 0.726 | 0.564 | 0.401 | 0.394 | 0.378 | 0.377 | 0.358 | 0.327 | 0.382 | 0.378 | 0.413 | 1.13 | 0.996 | 0.927 | 0.507 |
| Calu-6 | 0.622 | 0.641 | 0.688 | 0.262 | 1.16 | 1.03 | 1.01 | 1.02 | 1.03 |  |  |  |  | 0.995 | 1.17 | 0.877 | 0.391 |
| ChaGo-K-1 | 0.379 | 0.403 | 0.431 | 0.403 |  |  |  |  |  | 0.224 | 0.23 | 0.215 | 0.204 |  |  |  |  |
| EBC-1 | 0.88 | 0.773 | 0.664 | 0.546 | 0.202 | 0.242 | 0.27 | 0.2 | 0.238 |  |  |  |  | 0.863 | 0.835 | 0.734 | 0.55 |
| EKVX | 0.816 | 0.758 | 0.809 | 0.995 | 0.215 | 0.215 | 0.172 | 0.208 | 0.219 | 0.454 | 0.389 | 0.403 | 0.531 | 0.836 | 0.86 | 0.76 | 0.745 |
| EMC-BAC-2 | 0.508 | 0.48 | 0.506 | 0.56 | 0.826 | 0.881 | 0.877 | 0.927 | 0.74 | 0.339 | 0.286 | 0.302 | 0.308 | 0.716 | 0.699 | 0.782 | 0.746 |
| EPLC-272H | 0.604 | 0.591 | 0.606 | 0.0569 | 1 | 0.947 | 0.895 | 1 | 0.935 | 0.376 | 0.26 | 0.39 | 0.243 | 0.905 | 0.957 | 0.885 | 0.856 |
| H3255 | 0.581 | 0.514 | 0.527 | 0.451 | 0.283 | 0.236 | 0.255 | 0.246 | 0.237 | 0.998 | 0.506 | 0.622 | 0.582 | 0.712 | 0.678 | 0.833 | 0.519 |
| HARA | 0.753 | 0.478 | 0.482 | 0.301 | 0.836 | 0.611 | 0.681 | 0.869 | 0.778 | 0.129 | 0.0981 | 0.147 | 0.155 | 0.836 | 0.72 | 0.816 | 0.541 |
| HCC-15 | 0.712 | 0.772 | 0.73 | 0.355 | 0.963 | 0.841 | 0.843 | 0.832 | 0.888 | 0.378 | 0.524 | 0.434 | 0.199 | 0.959 | 0.905 | 0.763 | 0.406 |
